# Measured values taken from patent US10329243B2, “Biphenyl derivative and uses thereof” (XI'AN LIBANG PHARMACEUTICAL CO., LTD, priority 2015, dated 2019).
# Like-named read-outs stand apart in the source and are kept apart here.
# Legend:
# Format in all cases: in vivo, SD rats
# [1] = system: rats with permanent cerebral ischemia injury
# Protocol: 336 healthy male SD rats weighing 250-300 g, provided by the Experimental Animal Center of the Fourth Military Medical University, were randomly divided into […]: the sham operation group, the permanent cerebral ischemia model group, and Examples 1-12 groups. The biphenyl derivatives used in each of the Examples 1-12 groups were the same as those in Example 13.
# Rats were intraperitoneally injected with 10% chloral hydrate 350 mg/kg after anesthesia and opened up at the center of the neck in accordance with the Zea Longa modified method. The right common carotid artery was separated, and the right external carotid artery branches was ligated. A small opening was made at the distal end of the external carotid artery, and a previously prepared thread was inserted through the common carotid artery and the external carotid artery bifurcation into the internal carotid artery, till the anterior end of the middle cerebral artery, with an immersed depth of 18 to 19 mm. The thread was then secured, and the wound was sutured layer by layer. After the operation, the rats were placed in a clean incubator to wake up. […] The sham operation group, the permanent cerebral ischemia model group, and the Example groups were prepared strictly according to the requirements of the cerebral ischemic reperfusion model, while in the sham operation group the thread was put only into the external carotid artery. The animals were allowed to eat and drink freely after waking up. […] The sham operation group and the permanent cerebral ischemia model group were injected with the same amount of blank PEG400 aqueous solution at the same time point.
# The neurological impairment was scored in each group 24 h after the embolism. The scoring was in accordance with the Longa 5-grade method: grade 0: no nerve injury symptom; grade 1: inability of stretching the contralateral forepaw; grade 2: circling to the opposite side; grade 3: tumbling to the opposite side; grade 4: no autonomous activity with loss of consciousness.
# Fas = Fas determination (immunohistochemical method), permanent cerebral ischemia model
# Protocol: (§1) Rats were intraperitoneally injected with 10% chloral hydrate 350 mg/kg after anesthesia and opened up at the center of the neck in accordance with the Zea Longa modified method. The right common carotid artery was separated, and the right external carotid artery branches was ligated. A small opening was made at the distal end of the external carotid artery, and a previously prepared thread was inserted through the common carotid artery and the external carotid artery bifurcation into the internal carotid artery, till the anterior end of the middle cerebral artery, with an immersed depth of 18 to 19 mm. The thread was then secured, and the wound was sutured layer by layer. After the operation, the rats were placed in a clean incubator to wake up. […] The sham operation group, the permanent cerebral ischemia model group, and the Example groups were prepared strictly according to the requirements of the cerebral ischemic reperfusion model, while in the sham operation group the thread was put only into the external carotid artery. The animals were allowed to eat and drink freely after waking up. The sham operation group, the permanent cerebral ischemia model group, and the Example groups were administered intravenously the aqueous solution of the biphenyl derivatives in PEG400 at 40 mg/kg (40 mg/kg means that 40 mg of the test compound per kg of the body weight of rats) 30 min before insertion of thread and 12 h after embolism, respectively. The sham operation group and the permanent cerebral ischemia model group were injected with the same amount of blank PEG400 aqueous solution at the same time point.
# (§2) 24 hours after the embolism, 8 rats in each group were sacrificed by decapitation, the brain was removed, rinsed with PBS (pH 7.4) at −20°i for 20 min, evenly sliced (with a thickness of 2 mm), stained in a 2% TTC solution at 37°% in the dark for 30 min, fixed in 10% formalin for 24 h, and photographs were taken to analyze the infarct volume. A mixture of femoral arterial and venous blood was drawn from another 8 rats in each group under anesthesia, placed in a low temperature centrifuge at 4° C., centrifuged at 3500 r/min for 20 min, and the supernatant was stored in a refrigerator at −20° C. ready for SOD and MDA detection. After the blood was drawn, a perfusion needle was insert through the apex to the ascending aorta, and saline at 4° C. was rapid infused until the effluent became clear, followed by 4% paraformaldehyde phosphate buffer perfusion for fixation; the brain was removed by craniotomy, and brain tissues 2 mm in front of and behind the optic chiasma were taken and fixed, dehydrated, rendered transparent, impregnated in wax, and embedded. Brain continuous coronary tissue pathological sections were consecutively cut for later use. The remaining 8 rats in each group were sacrificed, brains were removed, the ischemic brain hemispheres were immediately taken on an ice tray, and 10% brain tissue homogenate was prepared for the detection of IL-1β and TNF-α.
# The immunohistochemical method was used for determination. Brain tissue paraffin sections were dewaxed into water, washed with 3% H2O2 to eliminate endogenous peroxidase activity, and rinsed with distilled water for 3 times. Sodium citrate buffer was used for antigen heat repairing, and blocking with calf serum was carried out at room temperature for 15 min; a rabbit anti-mouse Fas antibody was added dropwise, allowed to stand at 4°t overnight, biotinylated goat anti-rabbit IgG was added dropwise, and heated in a water bath at 37°a for 20 min. Washing with PBS for 5 min was continuously repeated 4 times, followed by staining with DAB and sufficient washing without counterstaining. The sections were then gradient dehydrated with alcohol, made transparent with toluene, sealed and fixed. Images were captured by a video camera under high-power optical microscope and inputted into the image analysis system for image analysis. […]
# brain cell apoptosis = assay: Apoptosis determination (TUNEL method), permanent cerebral ischemia model
# Protocol: as §1, §2
# The TUNEL method was used for determination. Brain tissue paraffin sections were dewaxed into water, washed with 3% H2O2 to eliminate endogenous peroxidase activity, and rinsed with distilled water for 2 min, repeated 3 times. A labelling solution was added for labelling at 37°t for 2 h, and a blocking solution was added for blocking at room temperature for 30 min. A biotinylated anti-digoxin antibody was added for a reaction at 37°a for 30 min, and SABC was added for a reaction at 37°a for 30 min. The sections were continuously rinsed with TBS for 5 min repeatedly for 4 times, stained with DAB, sufficiently washed, mild counterstained with Hematoxylin, gradient dehydrated with alcohol, made transparent with toluene, sealed and fixed. Five non-overlapping fields in semi-dark band were randomly selected from each section and inputted into the image analysis system. The number of apoptotic cells was counted, and the average was designated the number of apoptotic cells.
# [2] = permanent cerebral ischemia model rats, 40 mg/kg intravenously 30 min before insertion of thread and 12 h after embolism, scored 24 h after the embolism, Longa grade 0-4
# [3] = permanent cerebral ischemia model rats, 40 mg/kg intravenously, brain sections 24 h after the embolism, gray scale inversely proportional to positive expression
# [4] = permanent cerebral ischemia model rats, 40 mg/kg intravenously, brain sections 24 h after the embolism, TUNEL, average of five fields
# [5] = permanent cerebral ischemia model rats, edaravone 3 mg/kg
Compound,"Average score of neurological impairment [1, 2]",Fas average gray scale (Fas; [3]),Number of apoptotic cells (brain cell apoptosis; [4]),also measured
"CCCc1cc(-c2cc(CCC)c(O)c(CCC)c2)cc(CCC)c1O [Example 7 group, 4,4′-dihydroxy-3,3′,5,5′-tetrapropylbiphenyl]",2.3,153.46 ± 5.73,20.32 ± 4.19,–
"CC(=O)OC(C)Oc1c(C(C)C)cc(-c2cc(C(C)C)c(O)c(C(C)C)c2)cc1C(C)C (stereo not drawn) [Example 12 group, Ethyl 1-(4′-hydroxy-3,3′,5,5′-tetraisopropylbiphenyl-4-oxo)acetate]",2.6,139.48 ± 5.72,32.45 ± 4.21,–
"CC(C)c1cc(-c2cc(C(C)C)c(OC(=O)C(N)C(C)C)c(C(C)C)c2)cc(C(C)C)c1O (stereo not drawn) [Example 11 group, 4′-hydroxy-3,3′,5,5′-tetraisopropylbiphenyl-2-amino-3-methylbutyrate]",2.3,150.72 ± 4.19,26.31 ± 3.86,–
"CC1=NN(c2ccccc2)C(=O)C1 [Edaravone injection, edaravone, reference compound]",–,–,–,Fas average gray value (Fas; [5]): 138.95 ± 5.50; Number of apoptotic cells (brain cell apoptosis; [5]): 33.19 ± 3.81
"CC(C)c1cc(-c2cc(C(C)C)c(Cl)c(C(C)C)c2)cc(C(C)C)c1O [Example 9 group, 4-chloro-4′-hydroxy-3,3′,5,5′-tetraisopropylbiphenyl]",–,–,–,"Average score of neurological impairment ([1]; rat, in vivo, iv, 40 mg/kg): 2.8; Fas average gray scale (Fas; rat, in vivo, iv, 40 mg/kg): 144.31 ± 5.49; Number of apoptotic cells (brain cell apoptosis; rat, in vivo, iv, 40 mg/kg): 31.44 ± 5.19"
"CCCc1cc(-c2cc(CCC)c(O)c(C(C)C)c2)cc(C(C)C)c1O [Example 6 group, 4,4′-dihydroxy-3,3′-diisopropyl-5,5′-dipropylbiphenyl]",2.2,151.63 ± 5.58,21.24 ± 5.30,–
CC(C)c1cc(-c2cc(C(C)C)c(OC=O)c(C(C)C)c2)cc(C(C)C)c1O [Example 10 group],2.4,140.62 ± 3.85,23.67 ± 5.13,–
"CC(=O)Oc1c(C(C)C)cc(-c2cc(C(C)C)c(O)c(C(C)C)c2)cc1C(C)C [Example 1 group, 4′-hydroxy-3,3′,5,5′-tetraisopropylbiphenyl-4-acetate]",2.4,–,–,–
"CC(C)c1cc(-c2cc(C(C)C)c(OC(=O)CCC(=O)O)c(C(C)C)c2)cc(C(C)C)c1O [Example 5 group, [4-(4′-hydroxy-3,3′,5,5′-tetraisopropylbiphenyl)oxy]-4-carbonyl butyric acid]",2.4,143.02 ± 5.53,23.48 ± 3.62,–
"CC(C)c1cc(-c2cc(C(C)C)c(C(=O)O)c(C(C)C)c2)cc(C(C)C)c1O [Example 8 group, 4′-hydroxy-3,3′,5,5′-tetraisopropylbiphenyl-4-carboxylic acid]",2.7,145.24 ± 5.26,27.74 ± 4.20,–
"3,3′,5,5′-tetraisopropylbiphenyl-4,4′-bis(oxymethylene phosphate) [Example 3 group]",2.8,–,–,"Fas average gray scale (Fas; rat, in vivo, iv, 40 mg/kg): 143.39 ± 4.23; Number of apoptotic cells (brain cell apoptosis; rat, in vivo, iv, 40 mg/kg): 29.72 ± 3.43"
"CC(=O)Oc1c(C(C)C)cc(-c2cc(C(C)C)c(OC(C)=O)c(C(C)C)c2)cc1C(C)C [Example 2 group, 3,3′,5,5′-tetraisopropylbiphenyl-4′-diacetate]",2.5,149.63 ± 8.15,23.27 ± 3.78,–
